Results as given in PubChem BioAssay (NCI).
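Values below derive from 48-hour exposures of cells grown in 96-well plates, with endpoints linearly interpolated between the two concentrations bracketing the appropriate inhibition level. Definition used: TGI = concentration required for complete inhibition of growth.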

Tests used:
Test in all cases: inhibition of tumour cell growth, NCI panel, 48 h
[1] = system: 786-0 renal
[2] = system: A549 NSCLC
[3] = system: ACHN renal
[4] = system: CAKI-1 renal
[5] = system: CCRF-CEM leukemia
[6] = system: DLD-1 colon
[7] = system: DMS 114 small cell lung
[8] = system: DMS 273 small cell lung
[9] = system: HCC-2998 colon
[10] = system: HCT-116 colon
[11] = system: HCT-15 colon
[12] = system: HL-60(TB) leukemia
[13] = system: HOP-62 NSCLC
[14] = system: HOP-92 NSCLC
[15] = system: IGROV1 ovarian
[16] = system: K-562 leukemia
[17] = system: KM12 colon
[18] = system: LOX IMVI melanoma
[19] = system: LXFL 529 NSCLC
[20] = system: M14 melanoma
[21] = system: M19-MEL melanoma
[22] = system: MALME-3M melanoma
[23] = system: MOLT-4 leukemia
[24] = system: NCI-H226 lung
[25] = system: NCI-H23 lung
[26] = system: NCI-H460 lung
[27] = system: NCI-H522 lung
[28] = system: OVCAR-3 ovarian
[29] = system: OVCAR-4 ovarian
[30] = system: OVCAR-5 ovarian
[31] = system: OVCAR-8 ovarian
[32] = system: RPMI-8226 leukemia
[33] = system: RXF 393 renal
[34] = system: SF-268 CNS
[35] = system: SF-295 CNS
[36] = system: SF-539 CNS
[37] = system: SK-MEL-2 melanoma
[38] = system: SK-MEL-28 melanoma
[39] = system: SK-MEL-5 melanoma
[40] = system: SK-OV-3 ovarian
[41] = system: SN12C renal
[42] = system: SNB-19 CNS
[43] = system: SNB-75 CNS
[44] = system: SNB-78 CNS
[45] = system: SR leukemia
[46] = system: SW-620 colon
[47] = system: TK-10 renal
[48] = system: U251 CNS
[49] = system: UACC-62 melanoma
[50] = system: UO-31 renal
[51] = system: XF 498 CNS
[52] = system: COLO 205 colon
[53] = system: EKVX NSCLC
[54] = system: HT29 colon
[55] = system: KM20L2 colon

What does the source list for `COc1ccc2c(c1)O[C@@H]1c3ccc(OC)cc3OC[C@H]21`?
TGI [1]: 72.1 µM; TGI [2]: > 100 µM; TGI [3]: > 100 µM; TGI [4]: > 100 µM; TGI [5]: 80.5 µM; TGI [6]: > 100 µM; TGI [7]: 58.9 µM; TGI [8]: > 100 µM; TGI [9]: > 100 µM; TGI [10]: > 100 µM; TGI [11]: > 100 µM; TGI [12]: > 100 µM; TGI [13]: > 100 µM; TGI [14]: 79.7 µM; TGI [15]: > 100 µM; TGI [16]: 57.3 µM; TGI [17]: > 100 µM; TGI [18]: 83.7 µM; TGI [19]: > 100 µM; TGI [20]: > 100 µM; TGI [21]: > 100 µM; TGI [22]: > 100 µM; TGI [23]: 50.3 µM; TGI [24]: 69.6 µM; TGI [25]: > 100 µM; TGI [26]: 82 µM; TGI [27]: 51.6 µM; TGI [28]: > 100 µM; TGI [29]: > 100 µM; TGI [30]: > 100 µM; TGI [31]: > 100 µM; TGI [32]: > 100 µM; TGI [33]: 51 µM; TGI [34]: > 100 µM; TGI [35]: > 100 µM; TGI [36]: > 100 µM; TGI [37]: 89.6 µM; TGI [38]: > 100 µM; TGI [39]: 39.2 µM; TGI [40]: > 100 µM; TGI [41]: > 100 µM; TGI [42]: > 100 µM; TGI [43]: 51.4 µM; TGI [44]: > 100 µM; TGI [45]: 97.5 µM; TGI [46]: > 100 µM; TGI [47]: > 100 µM; TGI [48]: > 100 µM; TGI [49]: > 100 µM; TGI [50]: 77.6 µM; TGI [51]: > 100 µM

Which TGI [1] does the source give for `CN(C)CCNC(=O)c1ccc(Cl)c2c(Nc3ccc(S(=O)(=O)N=C(N)N)cc3)c3ccccc3nc12` here?
Its TGI is 35 µM.

What about the TGI [2] of the same molecule?
Its TGI is 17.2 µM.

And the TGI [3]?
The TGI was 18 µM.

What about the TGI [5] of the same molecule?
The TGI was 16.9 µM.

What about the TGI [52] of the same molecule?
Its TGI is 17.9 µM.

And the TGI [6]?
The TGI was 18.4 µM.

And the TGI [7]?
The TGI was 7.98 µM.

And the TGI [8]?
Its TGI is 8.63 µM.

What about the TGI [53] of the same molecule?
The TGI was 27.5 µM.

And the TGI [9]?
Its TGI is 21.3 µM.

What about the TGI [10] of the same molecule?
Its TGI is 17.8 µM.

What about the TGI [11] of the same molecule?
Its TGI is 18.6 µM.

What about the TGI [12] of the same molecule?
The TGI was 6.27 µM.

And the TGI [13]?
Its TGI is 26.4 µM.

What about the TGI [54] of the same molecule?
The TGI was 10.3 µM.

And the TGI [15]?
Its TGI is 18.5 µM.

And the TGI [16]?
Its TGI is 16.9 µM.

And the TGI [17]?
Its TGI is 20.7 µM.

What about the TGI [55] of the same molecule?
The TGI was 19.2 µM.

What about the TGI [18] of the same molecule?
Its TGI is 5.5 µM.

What about the TGI [19] of the same molecule?
Its TGI is 18.4 µM.

And the TGI [20]?
Its TGI is 53.6 µM.

And the TGI [21]?
Its TGI is 17.3 µM.

What about the TGI [23] of the same molecule?
Its TGI is 2.66 µM.

And the TGI [24]?
The TGI was 6.67 µM.

What about the TGI [26] of the same molecule?
Its TGI is 10.2 µM.

What about the TGI [27] of the same molecule?
The TGI was 3.79 µM.

What about the TGI [28] of the same molecule?
The TGI was 30.6 µM.

What about the TGI [29] of the same molecule?
The TGI was 5.24 µM.

What about the TGI [31] of the same molecule?
Its TGI is 15.2 µM.

And the TGI [33]?
The TGI was 19.3 µM.

What about the TGI [34] of the same molecule?
Its TGI is 19.7 µM.

And the TGI [35]?
Its TGI is 15.2 µM.

And the TGI [36]?
The TGI was 14.7 µM.

And the TGI [37]?
The TGI was 24.5 µM.

What about the TGI [38] of the same molecule?
The TGI was 26.6 µM.

What about the TGI [39] of the same molecule?
The TGI was 25.5 µM.

And the TGI [41]?
Its TGI is 16.6 µM.

And the TGI [42]?
The TGI was 6.6 µM.

What about the TGI [44] of the same molecule?
The TGI was 48.1 µM.

And the TGI [45]?
Its TGI is 9.06 µM.

What about the TGI [46] of the same molecule?
The TGI was 14.9 µM.

What about the TGI [47] of the same molecule?
Its TGI is 38.7 µM.

What about the TGI [48] of the same molecule?
The TGI was 16.4 µM.

What about the TGI [49] of the same molecule?
The TGI was 20.3 µM.

What about the TGI [50] of the same molecule?
The TGI was 3.23 µM.

And the TGI [51]?
Its TGI is 27.1 µM.
